Results published in patent publication US7838556B2 (priority 2006, dated 2010).
Where a name gives a salt, the structure may show the parent alone. Read-outs that look alike come from different tables or passages of the source.

Tests used:
Sodium, Site 2 = type: binding
[1] = tested on: Calcium Channel, Type L (Dihydropyridine Site); type: binding
GABA receptors [2] = type: binding, rat
Calcium Channel, Type N = Calcium Channel, Type N (Homo sapiens, UniProt Q00975); type: binding
Opiod, Non-selective = type: binding
GABAB receptors [3] = molecular target: T1, GABAB receptors (Rattus norvegicus, UniProt Q9Z0U4); type: binding
T1 sequence (O88871 41-940): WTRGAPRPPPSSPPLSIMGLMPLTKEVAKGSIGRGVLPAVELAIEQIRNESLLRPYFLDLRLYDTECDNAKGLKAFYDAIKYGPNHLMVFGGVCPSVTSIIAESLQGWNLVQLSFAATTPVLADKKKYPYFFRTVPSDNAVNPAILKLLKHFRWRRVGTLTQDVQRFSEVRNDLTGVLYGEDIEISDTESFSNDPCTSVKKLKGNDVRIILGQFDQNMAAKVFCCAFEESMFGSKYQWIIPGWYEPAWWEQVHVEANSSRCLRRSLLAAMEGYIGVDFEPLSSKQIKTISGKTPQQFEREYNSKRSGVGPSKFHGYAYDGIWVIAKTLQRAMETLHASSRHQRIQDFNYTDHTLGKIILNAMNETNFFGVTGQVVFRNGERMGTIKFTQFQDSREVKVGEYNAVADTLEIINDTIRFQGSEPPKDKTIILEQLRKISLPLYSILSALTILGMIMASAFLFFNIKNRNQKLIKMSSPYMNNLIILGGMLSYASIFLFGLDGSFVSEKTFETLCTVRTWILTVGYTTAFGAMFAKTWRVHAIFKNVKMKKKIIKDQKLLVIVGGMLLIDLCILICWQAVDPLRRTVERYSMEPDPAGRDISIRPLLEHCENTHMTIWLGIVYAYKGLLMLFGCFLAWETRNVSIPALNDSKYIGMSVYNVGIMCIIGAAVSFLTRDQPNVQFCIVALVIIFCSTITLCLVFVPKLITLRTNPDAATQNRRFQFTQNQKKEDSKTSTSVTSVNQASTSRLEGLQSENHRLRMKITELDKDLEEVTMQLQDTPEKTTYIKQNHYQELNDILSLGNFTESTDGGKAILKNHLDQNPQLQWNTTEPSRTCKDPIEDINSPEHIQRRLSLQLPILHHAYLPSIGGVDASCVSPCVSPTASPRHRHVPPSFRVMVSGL
T1 sequence (Q9Z0U4 17-960): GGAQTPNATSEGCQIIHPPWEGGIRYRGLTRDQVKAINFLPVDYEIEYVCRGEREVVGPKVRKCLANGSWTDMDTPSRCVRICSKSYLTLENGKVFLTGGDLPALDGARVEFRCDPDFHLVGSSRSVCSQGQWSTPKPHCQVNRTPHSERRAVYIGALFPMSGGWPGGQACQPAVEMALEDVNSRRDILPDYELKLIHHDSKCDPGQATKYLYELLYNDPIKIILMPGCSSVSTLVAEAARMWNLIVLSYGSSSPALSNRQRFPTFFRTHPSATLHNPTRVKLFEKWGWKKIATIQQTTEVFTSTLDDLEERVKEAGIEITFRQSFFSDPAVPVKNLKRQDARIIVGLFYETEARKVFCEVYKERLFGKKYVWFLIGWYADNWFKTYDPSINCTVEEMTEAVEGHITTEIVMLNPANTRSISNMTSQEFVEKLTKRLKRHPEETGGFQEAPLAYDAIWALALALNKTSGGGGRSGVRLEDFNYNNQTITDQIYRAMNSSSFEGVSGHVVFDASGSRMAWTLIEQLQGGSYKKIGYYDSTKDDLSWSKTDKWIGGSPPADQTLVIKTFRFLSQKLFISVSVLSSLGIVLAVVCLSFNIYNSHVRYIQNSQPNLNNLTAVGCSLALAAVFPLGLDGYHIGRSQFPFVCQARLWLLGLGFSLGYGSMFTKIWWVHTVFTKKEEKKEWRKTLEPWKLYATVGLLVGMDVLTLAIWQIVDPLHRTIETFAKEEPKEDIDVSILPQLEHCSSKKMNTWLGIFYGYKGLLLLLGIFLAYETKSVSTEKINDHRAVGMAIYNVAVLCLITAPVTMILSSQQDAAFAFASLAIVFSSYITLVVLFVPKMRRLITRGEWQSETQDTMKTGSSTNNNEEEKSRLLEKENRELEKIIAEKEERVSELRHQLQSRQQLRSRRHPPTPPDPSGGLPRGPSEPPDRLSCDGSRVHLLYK

[4] = tested on: Adrenergic, Beta, Non-selective; type: binding
Adenosine, Non-selective = type: binding
Serotonin, Non-selective = type: binding
Melatonin, Non-selective = type: binding
[5] = tested on: Muscarinic, Non-selective, Peripheral; type: binding
GABA, Non-Selective = type: binding
Dopamine, Non-selective = type: binding
[6] = tested on: Adrenergic, Alpha 1, Non-selective; type: binding
Sigma, Non-selective = type: binding
[7] = tested on: GABA, Chloride, TBOB Site; type: binding
[8] = molecular target: Potassium Channel, ATP-Sensitive (Rattus norvegicus, UniProt Q09429); type: binding
GABAA receptors [9] = type: binding, rat
[10] = tested on: Calcium Channel, Type L (Benzothiazepine Site); type: binding
[11] = tested on: Muscarinic, Non-selective, Central; type: binding
[12] = molecular target: Potassium Channel, I[Kr] (hERG) (hr) (Homo sapiens, UniProt Q12809)
[13] = tested on: Adrenergic, Alpha 2, Non-selective; type: binding
[14] = molecular target: T2, GHB receptors (GHB sites) (Rattus norvegicus, UniProt P11275); conditions: cited from earlier work
T2 sequence (P11275 whole entry): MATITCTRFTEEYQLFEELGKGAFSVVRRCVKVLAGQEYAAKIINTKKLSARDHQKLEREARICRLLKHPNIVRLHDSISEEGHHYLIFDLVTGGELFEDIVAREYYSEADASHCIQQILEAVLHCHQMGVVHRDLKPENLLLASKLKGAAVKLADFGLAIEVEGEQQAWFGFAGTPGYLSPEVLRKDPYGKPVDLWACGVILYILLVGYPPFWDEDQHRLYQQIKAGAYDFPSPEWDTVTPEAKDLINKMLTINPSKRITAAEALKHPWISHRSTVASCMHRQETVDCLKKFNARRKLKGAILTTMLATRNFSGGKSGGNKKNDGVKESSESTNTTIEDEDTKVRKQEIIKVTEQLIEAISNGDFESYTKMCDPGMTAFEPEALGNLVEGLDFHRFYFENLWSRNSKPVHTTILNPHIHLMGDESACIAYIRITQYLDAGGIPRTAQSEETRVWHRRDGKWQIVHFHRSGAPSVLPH

GABAA receptors [15] = conditions: cited from earlier work
[16] = molecular target: T2, GHB receptors (GHB sites); type: binding
GABAB receptors [17] = molecular target: T1, GABAB receptors; conditions: cited from earlier work
GABA receptors [18] = conditions: cited from earlier work
[19] = molecular target: Calcium Channel, Type L (Dihydropyridine Site); conditions: cited from earlier work

Sequence of Calcium Channel, Type N (Q00975 whole entry, looked up): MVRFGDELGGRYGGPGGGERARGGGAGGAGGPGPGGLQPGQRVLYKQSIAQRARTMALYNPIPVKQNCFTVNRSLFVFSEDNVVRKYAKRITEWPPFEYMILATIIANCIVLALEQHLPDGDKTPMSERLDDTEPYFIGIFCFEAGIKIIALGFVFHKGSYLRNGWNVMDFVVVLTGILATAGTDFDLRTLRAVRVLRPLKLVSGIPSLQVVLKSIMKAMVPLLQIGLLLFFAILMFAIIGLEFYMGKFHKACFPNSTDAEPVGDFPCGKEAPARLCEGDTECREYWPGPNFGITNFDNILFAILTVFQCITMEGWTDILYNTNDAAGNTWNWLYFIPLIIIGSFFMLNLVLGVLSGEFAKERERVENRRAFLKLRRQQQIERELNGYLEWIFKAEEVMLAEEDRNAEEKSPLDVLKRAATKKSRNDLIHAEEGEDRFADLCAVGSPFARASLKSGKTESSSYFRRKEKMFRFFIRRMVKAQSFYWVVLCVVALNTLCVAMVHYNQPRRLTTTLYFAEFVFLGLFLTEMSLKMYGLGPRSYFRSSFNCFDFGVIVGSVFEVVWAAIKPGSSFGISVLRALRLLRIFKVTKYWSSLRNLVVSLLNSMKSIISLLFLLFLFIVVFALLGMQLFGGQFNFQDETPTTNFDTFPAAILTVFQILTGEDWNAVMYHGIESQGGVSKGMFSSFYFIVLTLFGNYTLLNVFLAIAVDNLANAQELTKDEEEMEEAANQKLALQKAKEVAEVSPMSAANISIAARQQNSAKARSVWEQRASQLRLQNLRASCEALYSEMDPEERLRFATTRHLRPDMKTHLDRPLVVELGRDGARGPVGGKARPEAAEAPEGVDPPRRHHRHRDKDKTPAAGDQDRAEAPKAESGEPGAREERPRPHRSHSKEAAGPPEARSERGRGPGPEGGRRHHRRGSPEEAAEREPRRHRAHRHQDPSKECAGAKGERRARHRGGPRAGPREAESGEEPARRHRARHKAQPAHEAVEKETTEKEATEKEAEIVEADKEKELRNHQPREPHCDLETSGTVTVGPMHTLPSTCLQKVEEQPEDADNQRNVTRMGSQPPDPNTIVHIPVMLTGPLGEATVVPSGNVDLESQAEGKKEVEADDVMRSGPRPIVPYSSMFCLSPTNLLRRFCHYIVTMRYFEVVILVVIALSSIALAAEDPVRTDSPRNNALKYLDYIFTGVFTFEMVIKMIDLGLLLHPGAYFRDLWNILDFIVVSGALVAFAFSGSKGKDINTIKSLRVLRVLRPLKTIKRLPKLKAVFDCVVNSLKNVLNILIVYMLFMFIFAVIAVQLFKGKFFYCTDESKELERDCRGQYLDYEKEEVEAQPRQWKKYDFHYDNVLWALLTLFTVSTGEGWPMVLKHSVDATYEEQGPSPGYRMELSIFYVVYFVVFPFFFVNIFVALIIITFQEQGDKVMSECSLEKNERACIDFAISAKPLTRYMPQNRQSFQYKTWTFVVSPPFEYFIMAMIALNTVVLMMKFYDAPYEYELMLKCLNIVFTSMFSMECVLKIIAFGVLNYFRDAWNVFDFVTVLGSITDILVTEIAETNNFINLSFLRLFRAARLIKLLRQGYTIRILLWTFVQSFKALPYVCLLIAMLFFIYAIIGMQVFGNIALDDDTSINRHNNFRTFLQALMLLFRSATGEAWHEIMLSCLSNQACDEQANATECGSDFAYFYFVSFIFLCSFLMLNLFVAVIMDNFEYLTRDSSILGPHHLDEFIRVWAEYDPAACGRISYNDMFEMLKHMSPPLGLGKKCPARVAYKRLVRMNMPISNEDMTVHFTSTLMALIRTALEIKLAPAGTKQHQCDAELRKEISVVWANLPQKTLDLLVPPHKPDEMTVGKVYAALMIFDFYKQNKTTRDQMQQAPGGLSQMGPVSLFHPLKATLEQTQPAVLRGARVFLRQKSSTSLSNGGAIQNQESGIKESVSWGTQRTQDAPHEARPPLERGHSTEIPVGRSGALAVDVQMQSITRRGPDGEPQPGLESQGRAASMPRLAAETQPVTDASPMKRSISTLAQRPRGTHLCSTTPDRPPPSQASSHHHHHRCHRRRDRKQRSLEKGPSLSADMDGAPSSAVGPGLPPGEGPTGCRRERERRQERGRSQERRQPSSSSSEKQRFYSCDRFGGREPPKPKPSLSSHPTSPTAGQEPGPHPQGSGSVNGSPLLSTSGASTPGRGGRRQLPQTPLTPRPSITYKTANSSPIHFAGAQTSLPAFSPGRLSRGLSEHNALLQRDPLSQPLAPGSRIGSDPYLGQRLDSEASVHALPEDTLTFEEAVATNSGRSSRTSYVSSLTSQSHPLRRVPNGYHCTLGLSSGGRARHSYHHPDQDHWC

Compound: O=C(O)Cc1cccc(OCCc2ccccc2)c1 [Compound 10, phenethyl ether of 3-hydroxyphenylacetic acid]
- Activity (Sodium, Site 2): No (key: No: Activity = greater than or equal to 50% Inhibition of binding)
- Percent Inhibition (Average; N = 2) (Sodium, Site 2): 10.18%
- Activity [1]: No (key: No: Activity = greater than or equal to 50% Inhibition of binding)
- Percent Inhibition (Average; N = 2) [1]: 14.52%
- affinity at GABA receptors / displacement of [3H]GABA compared with 3-hydroxyphenylacetic acid (GABA receptors [2]): decreased affinity
- Activity (Calcium Channel, Type N): No (key: No: Activity = greater than or equal to 50% Inhibition of binding)
- Percent Inhibition (Average; N = 2) (Calcium Channel, Type N): −2.31%
- Activity (Opiod, Non-selective): No (key: No: Activity = greater than or equal to 50% Inhibition of binding)
- Percent Inhibition (Average; N = 2) (Opiod, Non-selective): 0.09%
- Percent displacement of [3H]GABA at 1 Mm, GABAB (GABAB receptors [3]): −1.2 ± 7.3%
- Activity [4]: No (key: No: Activity = greater than or equal to 50% Inhibition of binding)
- Percent Inhibition (Average; N = 2) [4]: 43.67%
- Activity (Adenosine, Non-selective): No (key: No: Activity = greater than or equal to 50% Inhibition of binding)
- Percent Inhibition (Average; N = 2) (Adenosine, Non-selective): −3.45%
- Activity (Serotonin, Non-selective): No (key: No: Activity = greater than or equal to 50% Inhibition of binding)
- Percent Inhibition (Average; N = 2) (Serotonin, Non-selective): −1.83%
- Activity (Melatonin, Non-selective): No (key: No: Activity = greater than or equal to 50% Inhibition of binding)
- Percent Inhibition (Average; N = 2) (Melatonin, Non-selective): 12.69%
- Activity [5]: No (key: No: Activity = greater than or equal to 50% Inhibition of binding)
- Percent Inhibition (Average; N = 2) [5]: −0.77%
- Activity (GABA, Non-Selective): No (key: No: Activity = greater than or equal to 50% Inhibition of binding)
- Percent Inhibition (Average; N = 2) (GABA, Non-Selective): 10.28%
- Activity (Dopamine, Non-selective): No (key: No: Activity = greater than or equal to 50% Inhibition of binding)
- Percent Inhibition (Average; N = 2) (Dopamine, Non-selective): 14.51%
- Activity [6]: No (key: No: Activity = greater than or equal to 50% Inhibition of binding)
- Percent Inhibition (Average; N = 2) [6]: −10.77%
- Activity (Sigma, Non-selective): No (key: No: Activity = greater than or equal to 50% Inhibition of binding)
- Percent Inhibition (Average; N = 2) (Sigma, Non-selective): 4.30%
- Activity [7]: No (key: No: Activity = greater than or equal to 50% Inhibition of binding)
- Percent Inhibition (Average; N = 2) [7]: −15.01%
- Activity [8]: No (key: No: Activity = greater than or equal to 50% Inhibition of binding)
- Percent displacement of [3H]GABA at 1 Mm, GABAA (GABAA receptors [9]): 15.1 ± 7.5%
- Activity [10]: No (key: No: Activity = greater than or equal to 50% Inhibition of binding)
- Percent Inhibition (Average; N = 2) [10]: 9.41%
- Activity [11]: No (key: No: Activity = greater than or equal to 50% Inhibition of binding)
- Percent Inhibition (Average; N = 2) [11]: 6.98%
- Activity [12]: No (key: No: Activity = greater than or equal to 50% Inhibition of binding)
- Percent Inhibition (Average; N = 2) ([12]; human): −11.94%
- Activity [13]: No (key: No: Activity = greater than or equal to 50% Inhibition of binding)
- Percent Inhibition (Average; N = 2) [13]: 0.21%

Compound: CN1[C@@H]2CC[C@H]1C[C@@H](OC(=O)C(CO)c1ccccc1)C2 (stereo partly drawn) [Atropine sulfate, reference compound]
- Ki ([5]; read-out: Ki (M) Ref. Cpd.): 5.8e-10 M
- Ki ([11]; read-out: Ki (M) Ref. Cpd.): 1.26e-10 M

Compound: CCN1C[C@]2(COC)[C@H](O)C[C@H](OC)[C@@]34[C@@H]5C[C@@]6(O)[C@H](OC(=O)c7ccccc7)[C@@H]5[C@@](OC(C)=O)([C@@H]([C@H](OC)[C@H]23)[C@@H]14)[C@@H](O)[C@@H]6OC [Aconitine, reference compound]
- Ki (Sodium, Site 2; read-out: Ki (M) Ref. Cpd.): 6.67e-07 M

Compound: C=CCc1ccccc1OCC(O)CNC(C)C (stereo not drawn) [Alprenolol HCl, reference compound]
- Ki ([4]; read-out: Ki (M) Ref. Cpd.): 3.33e-09 M

Compound: O=C(O)Cc1cccc(O)c1 [3-hydroxyphenylacetic acid]
- affinity at GHB receptors compared with GHB [14]: greater affinity than GHB
- Percent displacement of [3H]GABA at 1 Mm, GABAA (GABAA receptors [15]): 44%

Compound: O=C(O)Cc1cccc(OCc2ccccc2)c1 [Compound 11, benzyl ether of 3-hydroxyphenylacetic acid]
- affinity at GABA receptors / displacement of [3H]GABA compared with 3-hydroxyphenylacetic acid (GABA receptors [2]): lower extent
- Percent displacement of [3H]GABA at 1 Mm, GABAB (GABAB receptors [3]): −4.7 ± 4.7%
- Percent displacement of [3H]GABA at 1 Mm, GABAA (GABAA receptors [9]): 11.0 ± 6.2%
- fold lower affinity for GHB receptors than 3-hydroxyphenylacetic acid [16]: 4 fold

Compound: O=C(O)Cc1cccc(O)c1 [Compound 7, 3-hydroxyphenylacetic acid]
- Percent displacement of [3H]GABA at 1 Mm, GABAB (GABAB receptors [17]): 14.0 ± 4.0%
- Percent displacement of [3H]GABA at 1 Mm, GABAA (GABAA receptors [15]): 44.2 ± 2.0%
- affinity for GABA receptors (GABA receptors [18]): weak affinity

Compound: O=C(O)CCCOc1ccccc1 [Compound 8, reference compound]
- Percent displacement of [3H]GABA at 1 Mm, GABAB (GABAB receptors [3]): 6.5 ± 1.0%
- Percent displacement of [3H]GABA at 1 Mm, GABAA (GABAA receptors [9]): 6.3 ± 1.7%

Compound: O=C(O)Cc1cccc(Oc2ccccc2)c1 [Compound 12, phenyl ether of 3-hydroxyphenylacetic acid]
- affinity at GABA receptors / displacement of [3H]GABA compared with 3-hydroxyphenylacetic acid (GABA receptors [2]): decreased affinity
- Percent displacement of [3H]GABA at 1 Mm, GABAB (GABAB receptors [3]): −5.5 ± 1.2%
- Percent displacement of [3H]GABA at 1 Mm, GABAA (GABAA receptors [9]): 2.7 ± 0.5%

Compound: CCOC(=O)C1=C(C)NC(C)=C(C(=O)OC)C1c1cccc([N+](=O)[O-])c1 (stereo not drawn) [[3H]Nitrendipine]
- Kd [19]: 0.2 nM

Compound: O=C(O)CCCO [Compound 1, Gamma-hydroxybutyric acid]
- Percent displacement of [3H]GABA at 1 Mm, GABAB (GABAB receptors [17]): 41.1 ± 3.1%
- Percent displacement of [3H]GABA at 1 Mm, GABAA (GABAA receptors [15]): 35.5 ± 3.7%
- affinity for GABA receptors (GABA receptors [18]): weak affinity
